Assay results published in patent US10308926B2, “Stablized EZH2 peptides” (DANA-FARBER CANCER INSTITUTE, INC., priority 2013, dated 2019).
Bridges are numbered along the chain shown (N, C = ends). Where no end group is shown, it is not given here. [ ]: non-standard residue; d: D form. S5 = C=CCCC[C@](C)(N)C(=O)O; Nle = CCCC[C@H](N)C(=O)O

How the values were obtained:
32D = assay: Viability assay on EZH2-independent cell line 32D; format: cell-based; settings: EZH2-independent (non-leukemic)
Description: (§1) To compare the functional and mechanism-based cellular activities of SAH-EZH2 and GSK126, a small molecule inhibitor of EZH2 enzymatic activity (McCabe et al. Nature, 492: 108-112, 2012), we conducted viability assays on the EZH2-dependent cell line MLL-AF9 and the EZH2-independent (non-leukemic) cell line 32D. […] We next compared the effects of SAH-EZH2 and GSK126 on lineage specific surface marker expression in MLL-AF9 cells. […] Given the distinct mechanisms of action of SAH-EZH2 and GSK126, we explored whether co-administration of the two compounds would enhance the anti-leukemic effects. […] Thus, SAH-EZH2 manifests a unique mechanism of action by targeting EED, dissociating the EZH2/EED complex, and thereby reduces EZH2 protein levels. As a result, the H3K27Me3 mark is reduced over time and PRC2 transcriptional effects are inhibited, leading to anti-proliferative and induced-differentiation effects on EZH2-dependent leukemia cells.

CD133 = CD133 expression in MLL-AF9 cells; format: cell-based, mouse; settings: MLL-AF9, 8 days of treatment
MLL-AF9 = assay: Viability assay on EZH2-dependent cell line MLL-AF9; format: cell-based, mouse
Description: as §1

Ace1, Adam8 and Fcer1a = assay: Real time qPCR of macrophage/monocyte lineage-specific markers in MLL-AF9 cells; format: cell-based, mouse; settings: MLL-AF9, 8 days
MLL-AF9 leukemia cells = assay: Apoptosis by Annexin V/7-AAD flow cytometry; format: cell-based, mouse; settings: positive control, 2 μM, 48 h
Description: Cell Proliferation, Apoptosis, and Cell Cycle Analyses: To monitor the effect of SAH-EZH2 peptides on cell proliferation, MLL-AF9 cells were seeded in 48 well plates at densities of 2×10^5 cells per well in 150 μl of AF9 media and treated with SAH-EZH2 peptides (10 μM) twice daily. Cells were counted every other day using a hematocytometer. To evaluate apoptosis induction, the cells were stained with Annexin V5-PE and 7-AAD after 8 or 16 days of treatment with SAH-EZH2 peptides. Camptothecin (Biovision) was used as a positive control (2 μM, 48 h). Cells were analyzed using a BD FACScaliber and data was processed using Flowjo software. For cell cycle analysis, cells were stained with propidium iodide (BD Biosciences) after 4 or 8 days of treatment with SAH-EZH2 peptides. Cells were analyzed using a BD FACSCalibur and data processed using Modfit software.

EED [1] = target: T1, EED (Homo sapiens, UniProt O75530); assay: Fluorescence polarization binding of FITC-labeled SAH-EZH2 peptides to EED; settings: FITC-peptide 25 nM; His-EED 25 nM-8 μM
T1 construct: His (C); made in house; host or cells: Escherichia coli BL21(DE3)
Description: SAH-EZH2/EED Binding Analyses: For fluorescence polarization binding analysis, C-terminal His-tagged EED (His-EED) was expressed in Escherichia coli BL21(DE3) using 0.3 mM IPTG for 6 h at room temperature. Bacterial pellet lysate was loaded onto a Ni-NTA column (Novagen) for purification of His-EED. Fluorescinated stapled peptides (final concentration, 25 nM) were incubated with His-EED (serial dilution range, 25 nM-8 μM) at room temperature until equilibrium was reached (˜15 min) Binding activity was measured by fluorescence polarization on a Perkin-Elmer LS50B luminescence 5 spectrophotometer. KD values were determined by following equation,
(§2) [formula] y: Fluorescence polarization, X: Receptor concentration, L: Ligand concentration AF: Minimum value of y, AB: Maximum value of y For anti-FITC pull down-based binding assays, HA-EED was produced in Sf21 cells as described in Shen et al.^29,46. FITC-SAH-EZH2 peptides (final concentration, 50, 10, and 2 nM) were mixed with 2 μl, 0.5 μl and 0.2 μl of anti-FITC antibody (Abcam, 1 mg/ml) respectively, and incubated with 30 μl of protein G agarose (Roche) in 400 μl binding buffer (pH 8.0, 20 mM Tris-HCl, 150 mM NaCl, 0.3% NP40, 10% glycerol). After successive washes, HA-EED (final concentration of 40 nM each tube) was added and incubated for 3 h, followed by detection of HA-EED bound to FITC-SAH-EZH2 peptides by anti-HA (Santa Cruz Biotechnology) western analysis. Detection of FITC-SAH-EZH2 peptides was accomplished by fluorescence scan (GE Healthcare Life Sciences, Typhoon 9200).

HA-EED = target: T2, HA-EED (Homo sapiens, UniProt O75530); assay: Anti-FITC pull down of HA-EED by FITC-SAH-EZH2 peptides; format: binding; settings: HA-EED 40 nM
T2 construct: made in house; host or cells: Sf21 insect cells
Description: as §2

22Rv1 = assay: Viability of androgen independent prostate cancer cells 22Rv1, Cell Titer Glo; format: cell-based; settings: 22Rv1, every other day; read-out: IC50 for growth
Description: (§3) To test the anti-proliferative effect of SAH-EZH2(42-68)AC, breast (MDA-MB231) and prostate (DU145) cancer cell lines were treated with SAH-EZH2(42-68)AC at the indicated doses for 8 days and measured for viability by Cell Titer Glo®SAH-EZH2(42-68)AC was added to the culture medium once every other day. […] We further tested the anti-proliferative effects of SAH-EZH2(42-68)AC on a Ewing Sarcoma cell line (TC71) and neuroblastoma cell line (Kelly). The cells were treated with SAH-EZH2(42-68)AC at the indicated doses for 6 days on an every other day schedule and then measured for viability using Cell Titer Glo®. […] To test the anti-proliferative effect on chronic myelogenous leukemia, SAH-EZH2(42-68)AC was added to K562 cells at 10 μM every other day and viability was measured at days 2, 4, 6, and 10 using Cell Titer Glo®. […] To assess the anti-proliferative effects of SAH-EZH2(42-68)AC on androgen-dependent and advanced androgen-independent prostate cancer, SAH-EZH2(42-68)AC was added to cell culture every other day at the indicated doses and viability measured using Cell Titer Glo®.

[2] = test system: DU145 prostate cancer cells; assay: Viability of DU145 prostate cancer cells; format: cell-based; settings: 8 days, once every other day
Description: (§4) To compare the functional and mechanism-based cellular activities of SAH-EZH2 and GSK126, a small molecule inhibitor of EZH2 enzymatic activity (McCabe et al. Nature, 492: 108-112, 2012), we conducted viability assays on the EZH2-dependent cell line MLL-AF9 and the EZH2-independent (non-leukemic) cell line 32D. […] We next compared the effects of SAH-EZH2 and GSK126 on lineage specific surface marker expression in MLL-AF9 cells. […] Given the distinct mechanisms of action of SAH-EZH2 and GSK126, we explored whether co-administration of the two compounds would enhance the anti-leukemic effects. […]
(§5) To test the anti-proliferative effect of SAH-EZH2(42-68)AC, breast (MDA-MB231) and prostate (DU145) cancer cell lines were treated with SAH-EZH2(42-68)AC at the indicated doses for 8 days and measured for viability by Cell Titer Glo®SAH-EZH2(42-68)AC was added to the culture medium once every other day. […] The cells were treated with SAH-EZH2(42-68)AC at the indicated doses for 6 days on an every other day schedule and then measured for viability using Cell Titer Glo®. […] To test the anti-proliferative effect on chronic myelogenous leukemia, SAH-EZH2(42-68)AC was added to K562 cells at 10 μM every other day and viability was measured at days 2, 4, 6, and 10 using Cell Titer Glo®. […]

Abl = assay: Viability of androgen independent prostate cancer cells Abl, Cell Titer Glo; format: cell-based; settings: every other day, read-out: IC50 for growth
Description: as §3

[3] = test system: MDA-MB231 breast cancer cells; assay: Viability of MDA-MB231 breast cancer cells; format: cell-based; settings: 8 days, once every other day
Description: as §4, §5

TC71 = assay: Viability of Ewing Sarcoma cell line TC71, Cell Titer Glo; format: cell-based; settings: 6 days, every other day
Description: as §3

Kelly = assay: Viability of neuroblastoma cell line Kelly, Cell Titer Glo; format: cell-based; settings: 6 days, every other day
Description: as §3

K562 cells = assay: Viability of K562 chronic myelogenous leukemia cells, Cell Titer Glo; format: cell-based; settings: 10 μM every other day; days 2, 4, 6 and 10
Description: as §3

LNCaP cells = assay: Viability of androgen-dependent LNCaP cells, Cell Titer Glo; format: cell-based; settings: every other day
Description: as §3

EED [4] = target: T1, EED; assay: Competitive fluorescence polarization: displacement of FITC-labeled EZH2(42-68) peptide from EED; format: binding; settings: N-terminal acetylated peptides; EED 200 nM, FITC-peptide 20 nM, 30 min
Description: The EED binding affinities of SAH-EZH2 and SAH-EZH2(42-68)AC were assessed by their capacities to displace FITC-labeled EZH2(42-68) peptide from EED. Serially diluted acetyl-SAH-EZH2 and the doubly stapled acetyl-SAH-EZH2(42-68)AC (dose range from 2.5 nM to 10 μIM) were incubated with purified EED (200 nM) and FITC-labeled EZH2(42-68) peptide (20 nM) for 30 min, followed by measurement of fluorescence polarization. […] The non-binding EZH2(47-64) construct was used as a negative control.

T1 sequence (O75530 whole entry, species assumed): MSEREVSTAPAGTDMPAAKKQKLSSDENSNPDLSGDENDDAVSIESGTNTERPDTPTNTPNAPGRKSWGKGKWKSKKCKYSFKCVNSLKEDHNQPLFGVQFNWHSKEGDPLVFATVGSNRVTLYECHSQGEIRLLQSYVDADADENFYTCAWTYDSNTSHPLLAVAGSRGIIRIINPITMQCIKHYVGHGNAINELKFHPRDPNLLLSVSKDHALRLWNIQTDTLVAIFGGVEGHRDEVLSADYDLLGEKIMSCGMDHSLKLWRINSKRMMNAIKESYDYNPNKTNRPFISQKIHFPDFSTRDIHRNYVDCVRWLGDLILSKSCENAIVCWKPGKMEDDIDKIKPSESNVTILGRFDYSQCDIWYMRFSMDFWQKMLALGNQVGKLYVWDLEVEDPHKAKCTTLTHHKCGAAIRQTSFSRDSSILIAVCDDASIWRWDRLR
T2 sequence (O75530 whole entry): as the sequence (O75530 whole entry, species assumed) above

Compound: CC[C@H](C)n1cc(C)c2c(C(=O)NCc3c(C)cc(C)[nH]c3=O)cc(-c3ccc(N4CCNCC4)nc3)cc21 [GSK126]
- Viability of 32D cells (32D): decreased the viability
- Expression of CD133 (CD133): decreased the expression
- Viability of MLL-AF9 cells (MLL-AF9): decreased the viability
- Expression of macrophage lineage-specific markers (Ace1, Adam8 and Fcer1a): increase expression of Fcerla

Compound: CC[C@@]1(O)C(=O)OCc2c1cc1n(c2=O)Cc2cc3ccccc3nc2-1 [camptothecin]
- Apoptotic effect (MLL-AF9 leukemia cells): robust apoptotic effect

Compound: FSSNRXKILXRTEILNQEWKQRR (SEQ ID NO: 19) (FSSNR[S5]KIL[S5]RTEILNQEWKQRR; staple 6-10) [SAH-EZH2A(42-64)]
- EED-binding activity by fluorescence polarization (EED [1]): no appreciable engagement
- Engagement of HA-EED by anti-FITC pull down (HA-EED): no appreciable engagement

Compound: FSSNRXKILXRTXILNXEWKQRRIQPV (SEQ ID NO:56) (FSSNR[S5]KIL[S5]RT[S5]ILN[S5]EWKQRRIQPV; staple 6-10, 13-17) [SAH-EZH2(42-68)AC]
- IC50 (22Rv1): < 1000 nM
- Anti-proliferative effect on DU145 [2]: enhanced dose-dependent anti-proliferative effects compared to SAH-EZH2 treatment
- IC50 (Abl): < 1000 nM
- Anti-proliferative effect on MDA-MB231 [3]: enhanced dose-dependent anti-proliferative effects compared to SAH-EZH2 treatment
- Anti-proliferative effect on TC71 (TC71): noticeable anti-proliferative effects
- Anti-proliferative effect on Kelly (Kelly): noticeable anti-proliferative effects
- Proliferation of K562 cells (K562 cells): decreased proliferation of K562 cells in a dose-responsive manner
- Anti-proliferative activity on LNCaP (LNCaP cells): anti-proliferative activity in each case
- Displacement of FITC-labeled EZH2(42-68) peptide from EED (EED [4]): two times more efficiently than SAH-EZH2

Compound: QKILERTEILNQEWKQRR (SEQ ID NO: 11) [EZH2(47-64), reference compound]
- Displacement of FITC-labeled EZH2(42-68) peptide from EED (EED [4]): non-binding

Compound: SAH-EZH2B(40-68): stapled EZH2(40-68) peptide with the B-positioned staple; probably position 'C' (54-58) of FIG. 2, SEQ ID NO: 5 (S[Nle]FSSNRQKILERT[S5]ILN[S5]EWKQRRIQPV; staple 15-19)
- EED-binding activity by fluorescence polarization (EED [1]): most potent dose-responsive EED-binding activities

Compound: SAH-EZH2B(42-64): foreshortened stapled EZH2(42-64) peptide with the B-positioned staple; probably position 'C' of FIG. 2, SEQ ID NO: 20 (FSSNRQKILERT[S5]ILN[S5]EWKQRR; staple 13-17)
- EED-binding activity by fluorescence polarization (EED [1]): no appreciable engagement
- Engagement of HA-EED by anti-FITC pull down (HA-EED): no appreciable engagement

Compound: SBFSSNRXKILXRTEILNQEWKQRRIQPV (SEQ ID NO: 3) (S[Nle]FSSNR[S5]KIL[S5]RTEILNQEWKQRRIQPV; staple 8-12) [SAH-EZH2A(40-68)]
- EED-binding activity by fluorescence polarization (EED [1]): most potent dose-responsive EED-binding activities
